According to patent US20200061026A1, “METHODS AND COMPOSITIONS FOR PREVENTING VECTOR-BORNE DISEASE TRANSMISSION” (The Scripps Research Institute, priority 2016, published 2020):
Like-named read-outs stand apart in the source and are kept apart here.

Columns and labels:
Solubility at pH 6.8 = assay type: physicochemical; conditions: pH 6.8, aqueous buffer
[1] = Plasma protein binding (equilibrium dialysis), rat; assay type: in vitro ADME; conditions: 2 μM
Description: (§1) Frozen plasma (EDTA-K2 as anticoagulant) pooled from multiple individuals of various species was used as a test matrix. The plasma was purchased from commercial vendors or prepared in house from animals. Warfarin was used as a positive control.
(§2) Isoxazoline compounds were spiked into the blank matrix at the final concentration of 2 μM.
(§3) A 150 μL aliquot of matrix sample was added to one side of the chamber in a 96-well equilibrium dialyzer plate (HTD dialysis) and an equal volume of dialysis buffer was added to the other side of the chamber. An aliquot of matrix sample was harvested before the incubation and used as T0 samples for recovery calculation. Triplicate incubations were performed.
(§4) The dialyzer plate was placed in a humidified incubator and rotated slowly for 4 hours at 37° C. After incubation, samples were taken from the matrix side as well as the buffer side. The plasma sample was matched with equal volume of blank buffer; and buffer samples were matched with equal volume of blank plasma. The matrix-matched samples were quenched with a stop solution containing internal standard.
(§5) The samples were analyzed by LC-MS/MS.
(§6) Then, % bound fraction at 4 hours (% bound=1−% unbound) and % recovery in incubates at 4 hours were calculated.
(§7) The stability of compounds in mouse (ms), rat (r), dog (d), cynomolgus monkey (cy), and human (hu) plasma is shown in Table 10 by the percentages of compounds remaining at two hours.

CYP 3A4 = biological target: T1, CYP 3A4 (Homo sapiens, UniProt P08684); experiment: Reversible CYP inhibition in human liver microsomes, CYP 3A4; assay type: in vitro ADME
T1 construct: individual CYPs in a pool of human liver microsomes; from tissue; host or cells: pooled human liver microsomes
T1 sequence (P08684 whole entry): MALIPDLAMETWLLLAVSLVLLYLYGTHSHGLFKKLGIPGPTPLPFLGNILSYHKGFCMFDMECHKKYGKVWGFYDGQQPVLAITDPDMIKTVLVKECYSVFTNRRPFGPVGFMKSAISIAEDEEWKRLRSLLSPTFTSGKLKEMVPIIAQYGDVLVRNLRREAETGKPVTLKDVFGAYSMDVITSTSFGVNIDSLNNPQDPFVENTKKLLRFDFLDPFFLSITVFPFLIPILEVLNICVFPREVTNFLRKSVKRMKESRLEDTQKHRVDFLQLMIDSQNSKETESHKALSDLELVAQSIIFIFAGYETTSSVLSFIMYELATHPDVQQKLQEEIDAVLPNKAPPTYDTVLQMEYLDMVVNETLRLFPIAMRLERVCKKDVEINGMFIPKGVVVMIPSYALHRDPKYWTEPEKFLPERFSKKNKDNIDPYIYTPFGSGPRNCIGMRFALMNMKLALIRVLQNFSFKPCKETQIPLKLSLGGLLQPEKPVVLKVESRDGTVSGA
Description: Reversible inhibition of cytochrome P450s (CYPs) in human liver microsomes was tested using prototypical, isoform-selective activity assays for individual CYPs in a pool of human liver microsomes (i.e., testosterone for CYP 3A4, phenacetin for CYP 1A2, bufuralol for CYP 2D6, S-mephenytoin for CYP 2C19, and diclofenac for CYP 2C9). The assay provides 8-point IC50 determinations in the range of 0.010 to 50 μM drug concentrations for major isoforms of CYP450.

[2] = Plasma protein binding (equilibrium dialysis), human; assay type: in vitro ADME; conditions: 2 μM
Description: as §1, §2, §3, §4, §5, §6, §7

[3] = Hepatocyte stability assay, dog; assay type: in vitro ADME; conditions: Beagle, hepatocytes
Description: (§8) Example 7. In Vitro Metabolic Stability of Isoxazoline Compounds in cd-1 Mouse, sd Rat, Beagle Dog, Cynomolgus Monkey and Human Cryopreserved Hepatocytes
(§9) Isoxazoline compounds (at 1 μM) were incubated with cryopreserved hepatocytes (0.5×10^6 cells per mL) in duplicates (n=2) at 37° C. using 96-well plate format.
(§10) Time points were 0, 15, 30, 60 and 90 minutes in separate plates and medium control samples without cells at 0 and 90 minutes were also incubated. At each time point the reaction was stopped by adding organic solution containing internal standard (IS).
(§11) Positive controls 7-ethoxycoumarin and 7-hydroxycoumarin were included in parallel.
(§12) The samples were analyzed by LC-MS/MS. Disappearance of the test compound was assessed based on peak area ratios of analyte/IS (no standard curve).
(§13) Intrinsic clearance and t½ values were then calculated.

hERG channels = hERG channels (Homo sapiens, UniProt Q12809); experiment: hERG channel manual patch clamp assay (CHO-K1 cells); assay type: cell-based
Sequence of hERG channels (Q12809 whole entry): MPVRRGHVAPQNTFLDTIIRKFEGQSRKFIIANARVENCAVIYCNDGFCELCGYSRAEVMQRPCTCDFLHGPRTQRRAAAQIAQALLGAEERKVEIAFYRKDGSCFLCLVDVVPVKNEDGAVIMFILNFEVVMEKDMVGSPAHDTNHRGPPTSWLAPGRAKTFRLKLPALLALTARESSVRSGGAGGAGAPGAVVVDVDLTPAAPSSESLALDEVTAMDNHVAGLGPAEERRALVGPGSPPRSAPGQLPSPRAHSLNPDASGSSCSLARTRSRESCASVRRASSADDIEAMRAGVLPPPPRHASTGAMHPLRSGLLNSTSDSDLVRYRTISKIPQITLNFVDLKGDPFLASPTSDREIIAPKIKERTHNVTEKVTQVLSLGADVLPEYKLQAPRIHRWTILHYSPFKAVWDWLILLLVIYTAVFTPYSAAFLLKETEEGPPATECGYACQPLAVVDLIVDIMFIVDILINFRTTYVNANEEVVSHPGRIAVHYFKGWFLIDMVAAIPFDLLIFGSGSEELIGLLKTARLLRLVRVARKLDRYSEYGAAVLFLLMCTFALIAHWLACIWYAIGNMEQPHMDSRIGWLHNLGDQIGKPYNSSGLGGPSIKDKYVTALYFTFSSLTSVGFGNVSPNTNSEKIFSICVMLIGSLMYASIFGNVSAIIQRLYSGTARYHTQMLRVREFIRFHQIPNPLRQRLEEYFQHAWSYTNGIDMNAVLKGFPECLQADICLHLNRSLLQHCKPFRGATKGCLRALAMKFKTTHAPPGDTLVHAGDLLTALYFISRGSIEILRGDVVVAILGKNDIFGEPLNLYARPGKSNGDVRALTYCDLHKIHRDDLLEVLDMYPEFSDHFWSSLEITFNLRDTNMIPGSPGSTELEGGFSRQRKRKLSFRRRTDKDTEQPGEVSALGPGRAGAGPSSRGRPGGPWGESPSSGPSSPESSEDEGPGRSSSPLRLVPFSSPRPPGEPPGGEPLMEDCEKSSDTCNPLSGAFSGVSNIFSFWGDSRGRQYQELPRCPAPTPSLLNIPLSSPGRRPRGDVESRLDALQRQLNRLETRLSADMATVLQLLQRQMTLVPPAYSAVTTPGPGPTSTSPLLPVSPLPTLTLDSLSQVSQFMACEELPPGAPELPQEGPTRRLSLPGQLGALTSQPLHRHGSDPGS
Description: Cells: Stable CHO-K1 cells expressing hERG channels (from AVIVA Biosciences) were used in the assay.
Patch Clamp recording: The recordings were performed on conventional patch clamp (Axon Multiclamp 700B, Digidata 1440, pCLAMP 10, Molecular Devices Corporation or HEKA EPC10/Patchmaster system, HEKA Elektronik Corporation) at room temperature, using the whole-cell patch clamp techniques. The composition of external solution was (mM): HEPES 10, NaCl 145, KCl 4, CaCl2 2, MgCl2 1, Glucose 10, pH to 7.4 with 1N NaOH, osmolarity to 290-300 mOsm. Filtered and kept at 4° C. The composition of internal solution was (mM): KOH 31.25, KCl 120, CaCl2 5.374, MgCl2 1.75, EGTA 10, HEPES 10, Na2-ATP 4, pH to 7.2 with 1N KOH, osmolarity to 280-290 mOsm. Filtered and kept at −20° C.
For conventional patch clamp, 35 mm culture dishes or recording chambers containing CHO-hERG cells were placed on the stage of an inverted/upright microscope and continuously perfused with external solutions from a perfusion system (RSC-160 Rapid solution Changer, BioLogic or OctaFlow I, ALA Scientific Instruments Inc).
Test compounds were dissolved in 100% DMSO to make stock solutions for each test concentration, and then diluted into external solutions to achieve final concentration for testing. Final DMSO concentration was not more than 0.3%.
Voltage command protocol: From the holding potential of −80 mV, the voltage was first stepped to 60 mV for 850 ms to open hERG channels. Then the voltage was stepped back down to −50 mV for 1275 ms, causing a “rebound” or tail current, which was measured and collected for data analysis. Finally, the voltage was stepped back to the holding potential (−80 mV). This voltage command protocol was repeated every 15000 msec. This command protocol was performed continuously during the test (vehicle control, test compounds).
Compound effect (% inhibition) was determined by difference in current amplitude before and after the application of test compounds. IC50 values were determined from concentration-response curves that were obtained with Hill fitting.

Anopheles = Anopheles membrane feeding assay, EC90 at day 7; assay type: in vivo; conditions: 168 h
From the text: Isoxazoline compounds fluralaner or afoxolaner were reconstituted in 50% human serum and 50% red blood cells and administered to adult Anopheles stephensi mosquitos via standard membrane feeding. […] FIG. 2A represents a plot of viable Anopheles stephensi versus fluralaner concentration at each day of assessment. FIG. 2B represents a plot of viable Anopheles stephensi versus afoxolaner concentration at each day of assessment. […] The IC50 values of each compound for Anopheles death were determined by logistic regression using a least squares method to find the best fit and are shown in Table 1. IC50 values were calculated by applying a four-parameter logistic regression model using a least-squares method to find the best fit using the Graphpad Prism 5.0 software package.

[4] = Hepatocyte stability assay, mouse; assay type: in vitro ADME
Description: as §8, §9, §10, §11, §12, §13

[5] = dog (d), 1 μM, read-out: Hepatocyte stability (t½)
[6] = CD-1, hepatocytes, mouse (ms), 1 μM, read-out: Hepatocyte stability (t½)

Row | SMILES | solubility (Solubility at pH 6.8; read-out: Solubility (pH 6.8)) | Plasma protein % binding ([1]; rat (r), 4 hours) | IC50 (CYP 3A4) | Plasma protein % binding ([2]; human (hu), 4 hours) | half-life at 1 μM [3, 5] | hERG inhibition (manual patch) (hERG channels; at 5 uM) | EC90 (Anopheles) | half-life at 1 μM [4, 6] | solubility (Solubility at pH 6.8) | Plasma protein % binding ([1]; rat, 4 h) | Plasma protein % binding ([2]; human, 4 h) | half-life at 1 μM ([3]; dog) | IC50 (hERG channels) | EC90 (Anopheles; day 7, read-out: EC90) | half-life at 1 μM ([4]; CD-1, mouse, hepatocytes)
1 | O=C(CNC(=O)c1ccc(C2=NO[C@](c3cc(Cl)cc(C(F)(F)F)c3)(C(F)(F)F)C2)c2ccccc12)NCC(F)(F)F (racemic) [Afoxolaner, afoxolaner] | < 1 µM | 97.3 (r), % | > 50 µM | >99.9 (d, hu) % | > 217 min | 0.9% ± 2.5% | 0.0081 µM | > 217 min | – | – | – | – | – | – | –
2 | O=C(CNC(=O)c1ccc(C2=NO[C@@](c3cc(Cl)cc(Cl)c3)(C(F)(F)F)C2)c2ccccc12)NCC(F)(F)F [(S)-4-(5-(3,5-dichlorophenyl)-5-(trifluoromethyl)-4,5-dihydroisoxazol-3-yl)-N-(2-oxo-2-((2,2,2-trifluoroethyl)amino)ethyl)-1-naphthamide] | – | – | > 50 µM | – | – | – | – | – | < 1 µM | >99.9% (ms, r, d, hu) | >99.9% (ms, r, d, hu) | 41 min | 19.9 µM | 0.008 µM | 59 min
3 | O=C(CNC(=O)c1ccc(C2=NO[C@@](c3cc(Cl)cc(C(F)(F)F)c3)(C(F)(F)F)C2)c2ccccc12)NCC(F)(F)F [(S)-afoxolaner] | < 1 µM | >99.9 (ms, r, hu), % | > 50 µM | >99.9 (ms, r, hu), % | 32 min | – | 0.008 µM | 64 min | – | – | – | – | > 30 µM | – | –
